Reference: patent publication US4324728A, “Compound nanaomycin A and derivatives thereof and a process for producing the same” (The Kitasato Institute, priority 1976, dated 1982)
Values after ≈ are worked out from the molar mass of the structure shown. Read-outs that look alike come from different tables or passages of the source.

Legend:
[1] = test system: Mycobacterium smegmatis ATCC 607; experiment: Minimal inhibitory concentration (agar); assay type: cell-based; details: Mycolicibacterium smegmatis, ATCC607, 48 h; nutrient agar, pH 7.0, 2 days, 37° C.
[2] = test system: Staphylococcus aureus FDA 209P; experiment: Minimal inhibitory concentration (agar); assay type: cell-based; details: FDA209P, 48 h, nutrient agar, pH 7.0, 2 days, 37° C.
[3] = test system: Aspergillus niger ATCC 6275; experiment: Minimal inhibitory concentration (agar); assay type: cell-based; details: ATCC6275, 96 h, pH 6.4, 4 days, 27° C.
[4] = test system: Trichophyton interdigitale; experiment: Minimal inhibitory concentration (agar); assay type: cell-based; details: Trichophyton interdigitale, 96 h; potato agar, pH 6.4, 4 days, 27° C.; read-out: MIC
[5] = test system: Aspergillus fumigatus IAM 2162; experiment: Minimal inhibitory concentration (agar); assay type: cell-based; details: IAM2162, 96 h, potato agar, pH 6.4, 4 days, 27° C.
Description: | P potato agar (pH 6.4, 4 days, 27° C.)

mycoplasmas = experiment: Antimycoplasma activity (in words); assay type: cell-based
Salmonella typhimurium = experiment: Minimal inhibitory concentration (agar); assay type: cell-based; details: Salmonella enterica, 48 h, pH 7.0, 2 days, 37° C.
[6] = test system: Mycoplasma gallisepticum KP-13; experiment: Antimycoplasma activity, inhibition zone; assay type: cell-based; details: Eiken PPLO agar, pH 7.8, 8 days, 37° C.
Description: E Eiken PPLO agar (pH 7.8, 8 days, 37° C.)
(§1) Nanaomycin A and derivatives thereof according to the present invention are assayed in a similar manner to that designated as the paper disc method by Itoh, et al [J. of Antibiotics, 24, 855-859 (1971)], for example, as follows: […]

Trichophyton asteroides = experiment: Minimal inhibitory concentration (agar); assay type: cell-based; details: pH 6.4, 4 days, 27° C.
Trichophyton ferrugineum = experiment: Minimal inhibitory concentration (agar); assay type: cell-based; details: pH 6.4, 4 days, 27° C.
[7] = test system: Bacillus subtilis PCI 219; experiment: Minimal inhibitory concentration (agar); assay type: cell-based; details: pH 7.0, 2 days, 37° C.
Description: (§2) Medium N nutrient agar (pH 7.0, 2 days, 37° C.)
(§3) MIC Minimal inhibitory concentration
(§4) N nutrient agar (pH 7.0, 2 days, 37° C.)

Sarcina lutea PCI 1001 = experiment: Minimal inhibitory concentration (agar); assay type: cell-based; details: pH 7.0, 2 days, 37° C.
Description: as §2, §3, §4

[8] = test system: Acholeplasma laidlawii (A); experiment: Antimycoplasma activity, inhibition zone; assay type: cell-based; details: Hokken PPLO agar, pH 7.8, 8 days, 37° C.
Description: H Hokken PPLO agar (pH 7.8, 8 days, 37° C.)
as §1

Microsporum gypseum 704 = experiment: Minimal inhibitory concentration (agar); assay type: cell-based; details: Nannizzia gypsea, 704, 96 h; potato agar, pH 6.4, 4 days, 27° C.
in vivo = details: mouse, ip
Proteus mirabilis = experiment: Minimal inhibitory concentration (agar); assay type: cell-based; details: 48 h, nutrient agar, pH 7.0, 2 days, 37° C.
Description: as §4

[9] = test system: Staphylococcus aureus KB 64 (R-TC, EM); experiment: Minimal inhibitory concentration (agar); assay type: cell-based; details: 48 h, nutrient agar, pH 7.0, 2 days, 37° C., tetracyclin, erythromycin resistant strain, read-out: MIC
Description: as §4

Shigella sonnei E 33 = experiment: Minimal inhibitory concentration (agar); assay type: cell-based; details: E33, 48 h, nutrient agar, pH 7.0, 2 days, 37° C.
Description: as §4

[10] = test system: Pseudomonas aeruginosa P-3; experiment: Minimal inhibitory concentration (agar); assay type: cell-based; details: P3, 48 h, nutrient agar, pH 7.0, 2 days, 37° C.
Description: as §4

Bacillus cereus T = experiment: Minimal inhibitory concentration (agar); assay type: cell-based; details: 48 h, nutrient agar, pH 7.0, 2 days, 37° C.
Description: as §4

[11] = test system: Corynebacterium paurometabolum; experiment: Minimal inhibitory concentration (agar); assay type: cell-based; details: Tsukamurella paurometabola, 48 h; nutrient agar, pH 7.0, 2 days, 37° C.
Description: as §4

[12] = test system: Staphylococcus aureus FS 1227 (PC-R); experiment: Minimal inhibitory concentration (agar); assay type: cell-based; details: 48 h, nutrient agar, pH 7.0, 2 days, 37° C., penicillin resistant strain
Description: as §4

[13] = test system: Aerobacter aerogenes IAM 1183; experiment: Minimal inhibitory concentration (agar); assay type: cell-based; details: Klebsiella aerogenes, IAM1183, 48 h; nutrient agar, pH 7.0, 2 days, 37° C.
Description: as §4

[14] = test system: Staphylococcus aureus KB 61 (R-TC, EM); experiment: Minimal inhibitory concentration (agar); assay type: cell-based; details: 48 h, nutrient agar, pH 7.0, 2 days, 37° C., tetracyclin, erythromycin resistant strain, read-out: MIC
Description: as §4

[15] = test system: Proteus vulgaris IFO 3167; experiment: Minimal inhibitory concentration (agar); assay type: cell-based; details: IFO3167, 48 h, nutrient agar, pH 7.0, 2 days, 37° C.
Description: as §4

Solubility = assay type: physicochemical
Trichophyton roseum = experiment: Minimal inhibitory concentration (agar); assay type: cell-based; details: pH 6.4, 4 days, 27° C.
Trichophyton rubrum = experiment: Minimal inhibitory concentration (agar); assay type: cell-based; details: pH 6.4, 4 days, 27° C.
Description: (§5) P potato agar (pH 6.4, 4 days, 27° C.)
as §3
(§6) Minimal inhibitory concentration was assayed by agar dilution method
(§7) (potato agar, pH 6.4, 27° C., 4 days).

Trichophyton schoenleini = experiment: Minimal inhibitory concentration (agar); assay type: cell-based; details: pH 6.4, 4 days, 27° C.
Description: as §5, §3, §6, §7

Candida albicans = experiment: Minimal inhibitory concentration (agar); assay type: cell-based; details: pH 6.4, 4 days, 27° C.
Description: as §5, §3, §6, §7

[16] = Trichophyton, 96 h, pH 6.4, potato agar, read-out: MIC
[17] = Microsporum ferrugineum, 96 h, pH 6.4, potato agar, read-out: MIC
[18] = Bacillus subtilis, PCI219, 48 h, pH 7, nutrient agar, read-out: MIC
[19] = Micrococcus luteus, PCI1001, 48 h, pH 7, nutrient agar, read-out: MIC
[20] = Trichophyton rubrum, 96 h, pH 6.4, potato agar, read-out: MIC
[21] = Candida albicans, 96 h, pH 6.4, potato agar, read-out: MIC

## CC1OC(CC(=O)O)CC2=C1C(=O)c1c(O)cccc1C2=O (stereo not shown) [Nanaomycin A, nanaomycin A]
[1]
  MIC: 100 µg/mL (≈ 331 µM)
[2]
  MIC: 3.9 µg/mL (≈ 12.9 µM)
[3]; pH 6.4, potato agar
  MIC: 62.5 µg/mL (≈ 207 µM)
[3]; potato agar, read-out: MIC
  MIC: 25 µg/mL (≈ 82.7 µM)
[4]
  MIC: 1.6 µg/mL (≈ 5.29 µM)
[5]
  MIC: 6.3 µg/mL (≈ 20.8 µM)
mycoplasmas
  activity against mycoplasma(s): high activity
Salmonella typhimurium; nutrient agar
  MIC: 100 µg/mL (≈ 331 µM)
Salmonella typhimurium; pH 7, nutrient agar
  MIC: 62.5 µg/mL (≈ 207 µM)
[6]
  Inhibition Zone: 28.7 mm
Trichophyton asteroides; [16]
  MIC: 0.8 µg/mL (≈ 2.65 µM)
Trichophyton asteroides; potato agar
  MIC: 1.6 µg/mL (≈ 5.29 µM)
Trichophyton ferrugineum; [17]
  MIC: 0.8 µg/mL (≈ 2.65 µM)
Trichophyton ferrugineum; potato agar
  MIC: 1.6 µg/mL (≈ 5.29 µM)
[7]; [18]
  MIC: 6.3 µg/mL (≈ 20.8 µM)
[7]; nutrient agar
  MIC: 7.8 µg/mL (≈ 25.8 µM)
Sarcina lutea PCI 1001; [19]
  MIC: 1.6 µg/mL (≈ 5.29 µM)
Sarcina lutea PCI 1001; nutrient agar
  MIC: 2.0 µg/mL (≈ 6.62 µM)
[8]
  Inhibition Zone: none
Microsporum gypseum 704
  MIC: 0.8 µg/mL (≈ 2.65 µM)
In vivo
  LD50: 28.2 mg/kg
Proteus mirabilis
  MIC: > 100 µg/mL
[9]
  MIC: 0.8 µg/mL (≈ 2.65 µM)
Shigella sonnei E 33
  MIC: 100 µg/mL (≈ 331 µM)
[10]
  MIC: > 100 µg/mL
Bacillus cereus T
  MIC: 12.5 µg/mL (≈ 41.4 µM)
[11]
  MIC: 12.5 µg/mL (≈ 41.4 µM)
[12]
  MIC: 1.6 µg/mL (≈ 5.29 µM)
[13]
  MIC: > 100 µg/mL
[14]
  MIC: 1.6 µg/mL (≈ 5.29 µM)
[15]
  MIC: 50 µg/mL (≈ 165 µM)
Solubility
  Solubility in ether: Easily soluble
  Solubility in methanol, ethanol, ethylacetate, chloroform and acetone: Easily soluble
  Solubility in n-hexane and petroleum ether: Insoluble
  Solubility in water: Insoluble
Trichophyton roseum; [16]
  MIC: < 0.2 µg/mL
Trichophyton roseum; potato agar
  MIC: 0.4 µg/mL (≈ 1.32 µM)
Trichophyton rubrum; [20]
  MIC: < 0.2 µg/mL
Trichophyton rubrum; potato agar
  MIC: < 0.1 µg/mL
Trichophyton schoenleini; [16]
  MIC: < 0.2 µg/mL
Trichophyton schoenleini; potato agar
  MIC: 0.2 µg/mL (≈ 0.662 µM)
Candida albicans; [21]
  MIC: 50 µg/mL (≈ 165 µM)
Candida albicans; potato agar
  MIC: 31.2 µg/mL (≈ 103 µM)

## CC(=O)Oc1cccc2c1C(=O)C1=C(CC(CC(=O)O)OC1C)C2=O (stereo not shown) [Acetylnanaomycin A, acetylnanaomycin A]
[1]
  MIC: 50 µg/mL (≈ 145 µM)
[2]
  MIC: 1.6 µg/mL (≈ 4.65 µM)
[3]; potato agar, read-out: MIC
  MIC: 25 µg/mL (≈ 72.6 µM)
[4]
  MIC: 1.6 µg/mL (≈ 4.65 µM)
[5]
  MIC: 6.3 µg/mL (≈ 18.3 µM)
mycoplasmas
  activity against mycoplasma(s): as strong activity against fungi and mycoplasmas as nanaomycin A
Salmonella typhimurium; nutrient agar
  MIC: 50 µg/mL (≈ 145 µM)
[6]
  Inhibition Zone: 28.5 mm
Trichophyton asteroides; [16]
  MIC: 0.8 µg/mL (≈ 2.32 µM)
Trichophyton ferrugineum; [17]
  MIC: 0.8 µg/mL (≈ 2.32 µM)
[7]; [18]
  MIC: 3.1 µg/mL (≈ 9 µM)
Sarcina lutea PCI 1001; [19]
  MIC: 1.6 µg/mL (≈ 4.65 µM)
[8]
  Inhibition Zone: none
Microsporum gypseum 704
  MIC: 0.4 µg/mL (≈ 1.16 µM)
In vivo
  LD50: 38.5 mg/kg
Proteus mirabilis
  MIC: > 100 µg/mL
[9]
  MIC: 0.4 µg/mL (≈ 1.16 µM)
Shigella sonnei E 33
  MIC: 100 µg/mL (≈ 290 µM)
[10]
  MIC: > 100 µg/mL
Bacillus cereus T
  MIC: 25 µg/mL (≈ 72.6 µM)
[11]
  MIC: 6.3 µg/mL (≈ 18.3 µM)
[12]
  MIC: 0.8 µg/mL (≈ 2.32 µM)
[13]
  MIC: > 100 µg/mL
[14]
  MIC: 0.8 µg/mL (≈ 2.32 µM)
[15]
  MIC: 50 µg/mL (≈ 145 µM)
Solubility
  Solubility in ether: Soluble
  Solubility in methanol, ethanol, ethylacetate, chloroform and acetone: Soluble
  Solubility in n-hexane and petroleum ether: Insoluble
  Solubility in water: Insoluble
Trichophyton roseum; [16]
  MIC: 0.4 µg/mL (≈ 1.16 µM)
Trichophyton rubrum; [20]
  MIC: < 0.2 µg/mL
Trichophyton schoenleini; [16]
  MIC: < 0.2 µg/mL
Candida albicans; [21]
  MIC: 25 µg/mL (≈ 72.6 µM)
